Experimental findings from patent US20250281480A1, “PHARMACEUTICAL DRY POWDER INHALATION FORMULATION” (Bayer Aktiengesellschaft, priority 2021, published 2025) are described below.

The subject of series [1] is anesthetized thromboxane A2 challenged PAH-minipig. The series can be described thus: Haemodynamics in the anesthetized thromboxane challenged minipig (PAH minipig), inhaled nebulized solution: lung selectivity and duration of action. The class given is in vivo, Göttingen Minipigs. The procedure: (§1) Healthy Göttingen Minipigs® Ellegaard (Ellegaard, Denmark) of both sexes and having a weight of 2-6 kg were used. The animals were sedated by i.m. administration of about 25 mg/kg ketamine and about 10 mg/kg azaperone. Anaesthesia was initiated by i.v. administration of about 2 mg/kg ketamine and about 0.3 mg/kg midazolam. Maintenance of anaesthesia was by i.v. administration of about 7.5-30 mg/kg/h ketamine and about 1-4 mg/kg/h midazolam (rate of infusion 1-4 ml/kg/h) and about 150 μg/kg/h pancuronium bromide (for example Pancuronium-Actavis). After intubation, the animals were ventilated by the ventilator at a constant respiratory volume (10-12 ml/kg, 35 breaths/min; Avea®, Viasys Healthcare, USA, or Engström Carestation, GE Healthcare, Freiburg, Germany) such that an end-tidal CO2 concentration of about 5% was achieved. Ventilation was performed with room air, enriched with about 40% oxygen (normoxia). For the measurement of the haemodynamic parameters such as pulmonary arterial pressure (PAP), blood pressure (BP) and heart rate (HR), catheters were inserted into the carotid artery to measure the blood pressure, and a Swan-Ganz® catheter was introduced in a flow-directed manner via the jugular vein into the pulmonary artery. The haemodynamic signals were recorded and evaluated by means of pressure transducers (Combitransducer, B. Braun, Melsungen, Germany)/amplifiers and Ponemah® as data acquisition software.
After the instruments have been placed into the animals, continuous infusion of a thromboxane A2 analog was initiated to increase the pulmonary arterial pressure. About 0.3-0.75 μg/kg/min of 9,11-didesoxy-9α,11α-epoxymethanoprostaglandine F2α (U-44069; Sigma, cat. no. D0400, or Cayman Chemical Company, cat. no. 16440), dissolved in physiological saline, were infused to achieve an increase of the mean pulmonary arterial pressure to values of over 25 mmHg. 30 minutes after the start of the infusion, a plateau was reached, and the experiment was started.
The test substances were administered as i.v. infusion or by inhalation. For the preparation of the solution for inhalation, the following procedure was adopted: For an animal having a weight of 4 kg, to prepare the stock solution (300 μg/kg), 1.2 mg of the test compound were weighed out and dissolved in a total volume of 3 ml (1% DMSO, 99% 0.2% strength citric acid solution, 1 n aqueous sodium hydroxide solution to adjust the pH to 8). The solution was then diluted to the concentration employed using 0.2% strength citric acid which had been adjusted to pH 8 beforehand with aqueous sodium hydroxide solution. In each test, 3 ml of the solution of test compound per 4 kg animal were nebulized in the inhalation arm of the respiratory circuit using the Aeroneb® Pro nebulizer system. The mean nebulization time was about 7 min from the start of the nebulization.
With respect to a prediction of the duration of action for human studies comparative example 11 was compared in the PAH minipig model after inhaled application to Ventavis® (=Iloprost, 10 μg/kg nominal dose), which we used as a clinical reference. […] Therefore, the duration of action is more than 6 times longer compared to Ventavis in this preclinical animal model.

The subject of series [2] is anesthetized PAH minipigs. The series can be described thus: PAH minipig, intratracheal application of dry powder formulations and of different hydrates (PAP, BP). The class given is in vivo, Göttingen Minipigs. The conditions noted are these: dry powder lactose formulation, i.t. Here is the method: as §1
About 0.3-0.75 μg/kg/min of 9,11-didesoxy-9α,11α-epoxymethanoprostaglandine F2α (U-44069; Sigma, cat. no. D0400, or Cayman Chemical Company, cat. no. 16440), dissolved in physiological saline, were infused to achieve an increase of the mean pulmonary arterial pressure to values of over 25 mmHg.
After characterization of the effects of comparative example 11 after nebulization of compound solutions, in a further step the effects of crystalline forms of comparative example 11, e.g. sesquihydrate, e.g. example 6e on PAP and BP after inhaled application of different dry powder lactose formulations (table 52) were studied in anesthetized PAH minipigs.
As reference pure Lactose vehicle was applied in the beginning of each experiment.

Series [3] has as its system conscious hypoxia challenged dog. The series can be described thus: Conscious hypoxia challenged dog model, duration of action (PAP reduction). The class given is in vivo.
Series [4] relates to plasma proteins. The series is described as follows: Protein binding via Transil assay, rat plasma. The class given is in vitro ADME. The text has this:
The distribution of a test substance between Transil® (phosphatidylcholine lipid bilayers immobilized on silica beads) and plasma is a characteristic feature of any pharmaceutical compound and is dependent on its extent of binding to plasma proteins. By comparing the distribution between Transil® and buffer with the distribution between Transil® and plasma of any species of interest, the unbound fraction in the plasma of the respective animal species can be calculated in vitro. The respective plasma and buffer concentrations were determined via a radioactivity analysis. A detailed description of the method and its validation was published by Schuhmacher et al. (2).

Series [5] deals with acetylcholine [ACh] rat model. The series is described as follows: Acetylcholine [ACh] rat model, bronchodilation. Conditions: in vivo.

Some results are limits rather than exact numbers.

On to `O=C(O)c1ccc(CCN(CCc2ccccc2OCc2ccc(-c3ccc(C(F)(F)F)cc3)cc2Cl)[C@H]2CCCc3nc(C(=O)O)ccc32)cc1` [Comparative example 11, (5S)-5-{[2-(4-carboxyphenyl)ethyl][2-(2-{[3-chloro-4′-(trifluoromethyl)[biphenyl]-4-yl]methoxy}phenyl)ethyl]amino}-5,6,7,8-tetrahydroquinoline-2-carboxylic Acid], for which, in series [1] (5% reduction in PAP, nebulized), the “minimal effective nominal dose” value came out at 3 µg/kg. For the same compound, in series [1] (all doses (10, 30 and 100 μg/kg nominal dose), inhaled), the “dose dependent efficacy (PAP) during observation interval” value amounted to 240 min. Also, in series [1] (inhaled application, whole observation interval), the “selective PAP effect, duration of maximal effect” value is 240 min. The duration of action result in series [1] (minipig model, inhaled) is reported as “sufficient duration of action”. Besides, the “time of maximal effect on PAP after inhaled application” value in series [1] (nebulized solution) is “about 90 min”. In addition, the MED in series [2] was less than 7.5 µg/kg. In series [3], the “duration of effect (PAP reduction)” value was “up to 17 hrs”. Moreover, the “fraction unbound, lower than comparative example 1” value in series [4] is reported as 1.6 times lower. For the same compound, in series [5], the effect on ventilation entry is on record as “bronchodilatory effect”.
